Reference: PMC6099883 (Proceedings of the National Academy of Sciences of the …, 2018)
pKd: −log10 of the molar value.

Target: T1, OsGID1 with SLR1 (Oryza sativa, UniProt Q6L545)
T1 sequence (Q6L545 1-354): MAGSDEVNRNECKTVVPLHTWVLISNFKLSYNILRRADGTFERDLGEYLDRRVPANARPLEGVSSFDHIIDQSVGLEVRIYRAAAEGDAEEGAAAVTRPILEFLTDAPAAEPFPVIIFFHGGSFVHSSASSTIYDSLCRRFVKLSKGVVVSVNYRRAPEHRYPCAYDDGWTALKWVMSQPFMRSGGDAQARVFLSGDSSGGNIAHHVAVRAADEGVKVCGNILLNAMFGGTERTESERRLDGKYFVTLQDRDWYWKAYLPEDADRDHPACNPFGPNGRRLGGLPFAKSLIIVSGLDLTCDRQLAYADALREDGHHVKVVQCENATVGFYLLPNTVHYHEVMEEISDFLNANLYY
T1 sequence (Q7G7J6 1-625 partner): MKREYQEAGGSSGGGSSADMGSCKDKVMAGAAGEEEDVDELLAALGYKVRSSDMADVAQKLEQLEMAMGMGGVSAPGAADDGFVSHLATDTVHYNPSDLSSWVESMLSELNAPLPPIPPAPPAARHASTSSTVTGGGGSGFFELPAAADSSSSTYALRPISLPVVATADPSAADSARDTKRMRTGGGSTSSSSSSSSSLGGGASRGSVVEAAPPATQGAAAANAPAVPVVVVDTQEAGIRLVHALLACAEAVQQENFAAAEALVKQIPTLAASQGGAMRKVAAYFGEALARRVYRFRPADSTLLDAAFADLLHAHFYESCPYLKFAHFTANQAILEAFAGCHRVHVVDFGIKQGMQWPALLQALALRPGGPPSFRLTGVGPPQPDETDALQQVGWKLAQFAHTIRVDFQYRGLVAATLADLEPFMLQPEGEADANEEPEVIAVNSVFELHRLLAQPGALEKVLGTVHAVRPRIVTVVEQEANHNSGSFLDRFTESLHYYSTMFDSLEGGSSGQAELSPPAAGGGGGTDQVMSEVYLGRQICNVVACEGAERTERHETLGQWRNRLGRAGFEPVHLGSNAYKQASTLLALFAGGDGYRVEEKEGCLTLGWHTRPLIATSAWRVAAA
Test: SPR
Assay type: binding

Compound | pKd
C=C1C[C@]23C[C@@]1(O)CC[C@H]2[C@@]12C=C[C@H](O)[C@@](C)(C(=O)O1)[C@H]2[C@@H]3C(=O)O [GA3] | 6.53
C=C1C[C@]23C[C@@]1(O)CC[C@H]2[C@@]12CC[C@H](O)[C@@](C)(C(=O)O1)[C@H]2[C@@H]3C(=O)O [GA1] | 6.52
